Source: US10092529B2, “Necrosis inhibitors” (National Institute of Biological Sciences, Beijing, priority 2014, dated 2018)

What follows are molecules tested on HT-29 cells (assay: Necrosis assay: TNF-α/Smac mimetic/z-VAD induced necrosis, cell viability by CellTiter-Glo). Conditions: Homo sapiens, inhibition of necrosis, ATP levels, range given in uM, read-out: EC50 (necrosis activity).
Assay type: cell-based
Description: HT-29 cells were cultured in McCoy's 5A culture medium (Invitrogen). On day one, HT-29 cells were plated in 96-well assay plates at density of 2,500-3,500 cells per well. On day two, necrosis were induced by adding 20 ng/ml TNF-α (T), 100 nM Smac mimetic (S), and […] z-VAD (Z). At the same time, […] compound from a chemical library of ˜200,000 compounds was delivered into each well. After 24 hrs treatment, cell viability was determined by measuring ATP level using the CellTiter-Glo Luminescent Cell Viability Assay kit. A CellTiter-Glo Assay (Promega) was performed according to the manufacturer's instructions Luminescence was recorded with a PerkinElmer EnSpire Multimode Plate Reader. Survived cells were normalized to those cells treated with DMSO. Nec-1 was used as a positive control for screening necrosis inhibitors. Data are represented as mean±standard deviation of duplicates.
Dose-dependent inhibition of necrosis by compound #9 and the derivative compounds in HT-29 cells were determined by measuring ATP levels as described above.

SMILES	EC50
CCC(C)(C)C(=O)N1CC1c1ccccc1 (stereo not drawn) [Compound 1, 2,2-dimethyl-1-(2-phenylaziridin-1-yl)butan-1-one]	1 to 100 µM
CCC(C)(C)C(=O)N1CCOC1c1ccccc1 (stereo not drawn) [Compound 6, 2,2-dimethyl-1-(2-phenyloxazolidin-3-yl)butan-1-one]	1 to 100 µM
CCC(C)(C)C(=O)N1COC[C@@H]1c1ccccc1 [Compound 7, (S)-2,2-dimethyl-1-(4-phenyloxazolidin-3-yl)butan-1-one]	1 to 100 µM
CCC(C)(C)C(=O)N1CCCCC1c1ccccc1 (stereo not drawn) [Compound 11, 2,2-dimethyl-1-(2-phenylpiperidin-1-yl)butan-1-one]	1 to 100 µM
CCC(C)(C)C(=O)N1CCOCC1c1ccccc1 (stereo not drawn) [Compound 12, 2,2-dimethyl-1-(3-phenylmorpholino)butan-1-one]	1 to 100 µM
CCC(C)(C)C(=O)N1CC(O)C1c1ccccc1 (stereo not drawn) [Compound 16, 1-(3-hydroxy-2-phenylazetidin-1-yl)-2,2-dimethylbutan-1-one]	1 to 10 µM
CCC(C)(C)C(=O)N1CCNCC1c1ccccc1 (stereo not drawn) [Compound 17, 2,2-dimethyl-1-(2-phenylpiperazin-1-yl)butan-1-one]	1 to 100 µM
CCC(C)(C)C(=O)N1CCN(C(C)=O)CC1c1ccccc1 (stereo not drawn) [Compound 18, 1-(4-acetyl-2-phenylpiperazin-1-yl)-2,2-dimethylbutan-1-one]	1 to 100 µM
CCC(C)(C)C(=O)N1CCN(C(=O)OC(C)(C)C)CC1c1ccccc1 (stereo not drawn) [Compound 19, tert-butyl 4-(2,2-dimethylbutanoyl)-3-phenylpiperazine-1-carboxylate]	1 to 100 µM
CCC(C)(C)C(=O)N1C(=O)CC1c1cccc([N+](=O)[O-])c1 (stereo not drawn) [Compound 28, 1-(2,2-dimethylbutanoyl)-4-(3-nitrophenyl)azetidin-2-one]	1 to 10 µM
CCC(C)(C)C(=O)N1C(=O)CCC1c1ccccc1 (stereo not drawn) [Compound 29, 1-(2,2-dimethylbutanoyl)-5-phenylpyrrolidin-2-one]	1 to 100 µM
C#CCN1C[C@@H](c2ccccc2)N(C(=O)C(C)(C)CC)C1=O [Compound 30, (R)-3-(2,2-dimethylbutanoyl)-4-phenyl-1-(prop-2-yn-1-yl)imidazolidin-2-one]	1 to 10 µM
CCC(C)(C)C(=O)N1C(=O)CCN1c1ccccc1 [Compound 33, 2-(2,2-dimethylbutanoyl)-1-phenylpyrazolidin-3-one]	1 to 100 µM
CCC(C)(C)C(=O)N1NC(=O)CC1c1ccccc1 (stereo not drawn) [Compound 34, 1-(2,2-dimethylbutanoyl)-5-phenylpyrazolidin-3-one]	1 to 100 µM
O=C(N1CCCC1c1cccc(F)c1)C12CC3CC(CC(C3)C1)C2 (stereo not drawn) [Compound 37, adamantan-1-yl(2-(3-fluorophenyl)pyrrolidin-1-yl)methanone]	1 to 100 µM
CC(=O)N1C(=O)OC[C@H]1c1ccccc1 [Compound 39, (R)-3-acetyl-4-phenyloxazolidin-2-one]	1 to 10 µM
O=C(C=CCl)N1C(=O)C[C@H]1c1ccccc1 [Compound 40, (S)-1-(3-chloroacryloyl)-4-phenylazetidin-2-one]	1 to 100 µM
CC(C)(C)[S+]([O-])N1C(=O)C[C@H]1c1ccccc1 (stereo partly drawn) [Compound 41, (4S)-1-(tert-butylsulfinyl)-4-phenylazetidin-2-one]	1 to 100 µM
CC(C)S(=O)(=O)N1C(=O)C[C@H]1c1ccccc1 [Compound 42, (S)-1-(isopropylsulfonyl)-4-phenylazetidin-2-one]	1 to 100 µM
CCS(=O)(=O)N1C(=O)C[C@H]1c1ccccc1 [Compound 43, (S)-1-(ethylsulfonyl)-4-phenylazetidin-2-one]	1 to 100 µM
C#CC(C)(C)C(=O)N1C(=O)CC1c1cccc(N=[N+]=[N-])c1 (stereo not drawn) [Compound 44, 4-(3-azidophenyl)-1-(2,2-dimethylbut-3-ynoyl)azetidin-2-one]	1 to 10 µM
CC(C)(C)S(=O)(=O)N1C(=O)C[C@H]1c1ccccc1 [Compound 45, (S)-1-(tert-butylsulfonyl)-4-phenylazetidin-2-one]	1 to 100 µM
O=C1C[C@@H](c2ccccc2)N1C(=O)C1C2CC3CC(C2)CC1C3 (stereo partly drawn) [Compound 47, (S)-1-(adamantane-2-carbonyl)-4-phenylazetidin-2-one]	1 to 10 µM
CCN1C(=O)C[C@H]1c1ccccc1 [Compound 48, (S)-1-ethyl-4-phenylazetidin-2-one]	1 to 100 µM
C#CCN1C(=O)C[C@H]1c1ccccc1 [Compound 49, (S)-4-phenyl-1-(prop-2-ynyl)azetidin-2-one]	1 to 100 µM
O=C1C[C@@H](c2ccccc2)N1CC1CC1 [Compound 50, (S)-1-(cyclopropylmethyl)-4-phenylazetidin-2-one]	1 to 100 µM
CCN1C(=O)OC[C@H]1c1ccccc1 [Compound 51, (R)-3-ethyl-4-phenyloxazolidin-2-one]	1 to 100 µM
C#CCN1C(=O)OC[C@H]1c1ccccc1 [Compound 52, (R)-4-phenyl-3-(prop-2-yn-1-yl)oxazolidin-2-one]	1 to 100 µM

Same assay, conditions: inhibition of necrosis, ATP levels, range given in nM, read-out: EC50 (necrosis activity)

SMILES	EC50
CCC(C)(C)C(=O)N1CC[C@H]1c1ccccc1 [Compound 3, (S)-2,2-dimethyl-1-(2-phenylazetidin-1-yl)butan-1-one]	0.001 to 1 µM
CCC(C)(C)C(=O)N1CCCC1c1ccccc1 (stereo not drawn) [Compound 4, 2,2-dimethyl-1-(2-phenylpyrrolidin-1-yl)butan-1-one]	0.001 to 1 µM
CCC(C)(C)C(=O)N1CCCC1C1CCCCC1 (stereo not drawn) [Compound 5, 1-(2-cyclohexylpyrrolidin-1-yl)-2,2-dimethylbutan-1-one]	0.001 to 1 µM
CCC(C)(C)C(=O)N1COC[C@H]1c1ccccc1 [Compound 8, (R)-2,2-dimethyl-1-(4-phenyloxazolidin-3-yl)butan-1-one]	0.001 to 1 µM
CCC(C)(C)C(=O)N1CCCC1c1cccc(F)c1 (stereo not drawn) [Compound 9, 1-(2-(3-fluorophenyl)pyrrolidin-1-yl)-2,2-dimethylbutan-1-one]	0.001 to 1 µM
CCC(C)(C)C(=O)N1CC(F)(F)C1c1ccccc1 (stereo not drawn) [Compound 14, 1-(3,3-difluoro-2-phenylazetidin-1-yl)-2,2-dimethylbutan-1-one]	0.001 to 1 µM
CCC(C)(C)C(=O)N1N=CCC1c1ccccc1 (stereo not drawn) [Compound 20, 2,2-dimethyl-1-(5-phenyl-4,5-dihydro-1H-pyrazol-1-yl)butan-1-one]	0.001 to 1 µM
CCC(C)(C)C(=O)N1NCCC1c1ccccc1 (stereo not drawn) [Compound 21, 2,2-dimethyl-1-(5-phenylpyrazolidin-1-yl)butan-1-one]	0.001 to 1 µM
CCC(C)(C)C(=O)N1C(c2ccccc2)CCN1C (stereo not drawn) [Compound 22, 2,2-dimethyl-1-(2-methyl-5-phenylpyrazolidin-1-yl)butan-1-one]	0.001 to 1 µM
CCC(C)(C)C(=O)N1C(=O)OC[C@H]1c1ccccc1 [Compound 23, (R)-3-(2,2-dimethylbutanoyl)-4-phenyloxazolidin-2-one]	0.001 to 1 µM
CCC(C)(C)C(=O)N1C(=O)CC1c1cccc(Br)c1 (stereo not drawn) [Compound 26, 4-(3-bromophenyl)-1-(2,2-dimethylbutanoyl)azetidin-2-one]	0.001 to 1 µM
C#Cc1cccc(C2CC(=O)N2C(=O)C(C)(C)CC)c1 (stereo not drawn) [Compound 27, 1-(2,2-dimethylbutanoyl)-4-(3-ethynylphenyl)azetidin-2-one]	0.001 to 1 µM
CCC(C)(C)C(=O)N1C(=O)C(F)(F)C1c1ccccc1 (stereo not drawn) [Compound 32, 1-(2,2-dimethylbutanoyl)-3,3-difluoro-4-phenylazetidin-2-one]	0.001 to 1 µM
O=C(N1CCCC1c1cccc(F)c1)C1(C(F)(F)F)CCCC1 (stereo not drawn) [Compound 35, (2-(3-fluorophenyl)pyrrolidin-1-yl)(1-(trifluoromethyl)cyclopentyl)methanone]	0.001 to 1 µM
O=C(N1CCCC1c1cccc(F)c1)C1(C(F)(F)F)CCC1 (stereo not drawn) [Compound 36, (2-(3-fluorophenyl)pyrrolidin-1-yl)(1-(trifluoromethyl)cyclobutyl)methanone]	0.001 to 1 µM
C#CC(C)(C)C(=O)N1CC[C@H]1c1ccccc1 [Compound 46, (S)-2,2-dimethyl-1-(2-phenylazetidin-1-yl)but-3-yn-1-one]	0.001 to 1 µM

Same assay, conditions: inhibition of necrosis, ATP levels, range given in uM, read-out: EC50 (necrosis activity)

SMILES	EC50
CCC(C)(C)C(=O)N1CCC=C[C@H]1C1CCCCC1 [Compound 53]	1 to 1000 µM
C=CC(C)(C)C(=O)N1CCC=C[C@H]1C1CCCCC1 [Compound 54]	1 to 1000 µM
CCC(C)(C)C(=O)N1C=CC=CC1c1ccccc1 (stereo not drawn) [Compound 55]	1 to 1000 µM
CCC(C)(C)C(=O)N1C=CC=CC1C1CCCCC1 (stereo not drawn) [Compound 56]	1 to 1000 µM
C=CC(C)(C)C(=O)N1C=CC=C[C@H]1C1CCCCC1 [Compound 57]	1 to 1000 µM
C=CC(C)(C)C(=O)N1C=CC=CC1c1ccccc1 (stereo not drawn) [Compound 58]	1 to 1000 µM
CCC(C)(C)C(=O)N1CCC1c1cccs1 (stereo not drawn) [Compound 59]	1 to 1000 µM
CCC(C)(C)C(=O)N1CCC1c1ccc(C)s1 (stereo not drawn) [Compound 60]	1 to 1000 µM
CCC(C)(C)C(=O)N1CCC1c1ccco1 (stereo not drawn) [Compound 61]	1 to 1000 µM
C=CC(C)(C)C(=O)N1CCC1c1cccs1 (stereo not drawn) [Compound 62]	1 to 1000 µM
C=CC(C)(C)C(=O)N1CCC1c1ccc(C)s1 (stereo not drawn) [Compound 63]	1 to 1000 µM
C=CC(C)(C)C(=O)N1CCC1c1ccco1 (stereo not drawn) [Compound 64]	1 to 1000 µM
CCC(C)(C)C(=O)N1CCC1c1ncc(C)s1 (stereo not drawn) [Compound 65]	1 to 1000 µM
C=CC(C)(C)C(=O)N1CCC1c1ncc(C)s1 (stereo not drawn) [Compound 66]	1 to 1000 µM
CCC(C)(C)C(=O)N1CCC1c1ccccc1F (stereo not drawn) [Compound 67]	1 to 1000 µM
C=CC(C)(C)C(=O)N1CC[C@H]1c1ccccc1 [Compound 68]	1 to 1000 µM
